Reference: ChEMBL document CHEMBL3864146, “5-Alkyloxytryptamines are membrane-targeting, broad-spectrum antibiotics” (Bioorg Med Chem Lett, 2016)
Calls of active or inactive are those of the source. No cut-off for these calls is given here.

What was measured:
[1] = system: Escherichia coli; assay: Antibacterial activity against Escherichia coli BW25113 after 16 to 18 hrs by micro-dilution method; type: functional
[2] = system: Escherichia coli; assay: Antibacterial activity against tolC-deficient Escherichia coli BW25113 after 16 to 18 hrs by micro-dilution method; type: functional
[3] = system: Bacillus subtilis; assay: Antibacterial activity against Bacillus subtilis 168 after 16 to 18 hrs by micro-dilution method; type: functional; conditions: subsp. subtilis str. 168
[4] = system: Pseudomonas aeruginosa; assay: Antibacterial activity against Pseudomonas aeruginosa after 16 to 18 hrs by micro-dilution method; type: functional
[5] = system: Salmonella typhimurium; assay: Antibacterial activity against Salmonella typhimurium after 16 to 18 hrs by micro-dilution method; type: functional, Salmonella enterica subsp. enterica serovar Typhimurium; conditions: Salmonella enterica
[6] = system: Vibrio cholerae; assay: Antibacterial activity against Vibrio cholerae after 16 to 18 hrs by micro-dilution method; type: functional
[7] = system: Shigella boydii; assay: Antibacterial activity against Shigella boydii after 16 to 18 hrs by micro-dilution method; type: functional
[8] = system: Klebsiella pneumoniae; assay: Antibacterial activity against Klebsiella pneumoniae after 16 to 18 hrs by micro-dilution method; type: functional
[9] = system: Klebsiella aerogenes; assay: Antibacterial activity against Enterobacter aerogenes after 16 to 18 hrs by micro-dilution method; type: functional
[10] = system: Acinetobacter baumannii; assay: Antibacterial activity against Acinetobacter baumannii after 16 to 18 hrs by micro-dilution method; type: functional
[11] = system: Edwardsiella tarda; assay: Antibacterial activity against Edwardsiella tarda after 16 to 18 hrs by micro-dilution method; type: functional
[12] = system: Morganella morganii; assay: Antibacterial activity against Morganella morganii after 16 to 18 hrs by micro-dilution method; type: functional
[13] = system: Staphylococcus aureus; assay: Antibacterial activity against Staphylococcus aureus after 16 to 18 hrs by micro-dilution method; type: functional
[14] = system: Streptococcus pyogenes; assay: Antibacterial activity against Streptococcus pyogenes after 16 to 18 hrs; type: functional
[15] = system: Escherichia coli; assay: Bactericidal activity against Escherichia coli BW25113 after 22 hrs by micro-dilution method; type: functional; conditions: BW25113, 22 h
[16] = system: Escherichia coli; assay: Bactericidal activity against tolC-deficient Escherichia coli BW25113 after 22 hrs by micro-dilution method; type: functional; conditions: BW25113, 22 h
[17] = system: Bacillus subtilis; assay: Bactericidal activity against Bacillus subtilis 168 after 22 hrs by micro-dilution method; type: functional; conditions: subsp. subtilis str. 168, 22 h
[18] = system: Pseudomonas aeruginosa; assay: Bactericidal activity against Pseudomonas aeruginosa after 22 hrs by micro-dilution method; type: functional
[19] = system: Salmonella typhimurium; assay: Bactericidal activity against Salmonella typhimurium after 22 hrs by micro-dilution method; type: functional, Salmonella enterica subsp. enterica serovar Typhimurium; conditions: Salmonella enterica
[20] = system: Vibrio cholerae; assay: Bactericidal activity against Vibrio cholerae after 22 hrs by micro-dilution method; type: functional
[21] = system: Shigella boydii; assay: Bactericidal activity against Shigella boydii after 22 hrs by micro-dilution method; type: functional
[22] = system: Klebsiella pneumoniae; assay: Bactericidal activity against Klebsiella pneumoniae after 22 hrs by micro-dilution method; type: functional
[23] = system: Klebsiella aerogenes; assay: Bactericidal activity against Enterobacter aerogenes after 22 hrs by micro-dilution method; type: functional
[24] = system: Acinetobacter baumannii; assay: Bactericidal activity against Acinetobacter baumannii after 22 hrs by micro-dilution method; type: functional
[25] = system: Edwardsiella tarda; assay: Bactericidal activity against Edwardsiella tarda after 22 hrs by micro-dilution method; type: functional
[26] = system: Morganella morganii; assay: Bactericidal activity against Morganella morganii after 22 hrs by micro-dilution method; type: functional
[27] = system: Staphylococcus aureus; assay: Bactericidal activity against Staphylococcus aureus after 22 hrs by micro-dilution method; type: functional
[28] = system: Streptococcus pyogenes; assay: Bactericidal activity against Streptococcus pyogenes after 22 hrs; type: functional
[29] = system: Escherichia coli; assay: Ratio of MBC to MIC for Escherichia coli BW25113 after 16 to 18 hrs by micro-dilution method; type: functional
[30] = system: Escherichia coli; assay: Ratio of MBC to MIC for tolC-deficient Escherichia coli BW25113; type: functional
[31] = system: Bacillus subtilis; assay: Ratio of MBC to MIC for Bacillus subtilis 168; type: functional, subsp. subtilis str. 168
[32] = system: Pseudomonas aeruginosa; assay: Ratio of MBC to MIC for Pseudomonas aeruginosa; type: functional
[33] = system: Salmonella typhimurium; assay: Ratio of MBC to MIC for Salmonella typhimurium; type: functional, Salmonella enterica subsp. enterica serovar Typhimurium
[34] = system: Vibrio cholerae; assay: Ratio of MBC to MIC for Vibrio cholerae; type: functional
[35] = system: Shigella boydii; assay: Ratio of MBC to MIC for Shigella boydii; type: functional
[36] = system: Klebsiella pneumoniae; assay: Ratio of MBC to MIC for Klebsiella pneumoniae; type: functional
[37] = system: Klebsiella aerogenes; assay: Ratio of MBC to MIC for Enterobacter aerogenes; type: functional
[38] = system: Acinetobacter baumannii; assay: Ratio of MBC to MIC for Acinetobacter baumannii; type: functional
[39] = system: Edwardsiella tarda; assay: Ratio of MBC to MIC for Edwardsiella tarda; type: functional
[40] = system: Morganella morganii; assay: Ratio of MBC to MIC for Morganella morganii; type: functional
[41] = system: Staphylococcus aureus; assay: Ratio of MBC to MIC for Staphylococcus aureus; type: functional
[42] = system: Streptococcus pyogenes; assay: Ratio of MBC to MIC for Streptococcus pyogenes; type: functional
[43] = system: Escherichia coli; assay: Induction of membrane permeabilization in Escherichia coli BW25113 at MIC to 2 times MIC after 5 mins by propidium iodide staining-based flow cytometric method; type: functional
[44] = system: Escherichia coli; assay: Induction of membrane permeabilization in Escherichia coli BW25113 at MIC after 15 mins by propidium iodide staining-based fluorescence microplate reader method relative to 50% ethanol; type: functional
[45] = system: Escherichia coli; assay: Antibacterial activity against Escherichia coli BW25113 by multiple copy suppression assay; type: functional
[46] = system: Escherichia coli; assay: Antibacterial activity against Escherichia coli 5-NOT mutant 8 harboring ydeA gene mutation by multiple copy suppression assay; type: functional
[47] = system: Escherichia coli; assay: Antibacterial activity against Escherichia coli 5-NOT mutant 8 harboring pykA gene mutation by multiple copy suppression assay; type: functional
[48] = system: Escherichia coli; assay: Antibacterial activity against Escherichia coli 5-NOT mutant 8 harboring otsA gene mutation by multiple copy suppression assay; type: functional
[49] = system: Escherichia coli; assay: Antibacterial activity against Escherichia coli 5-NOT mutant 15-1 harboring ydeA gene mutation by multiple copy suppression assay; type: functional
[50] = system: Escherichia coli; assay: Antibacterial activity against Escherichia coli 5-NOT mutant 15-1 harboring thrS gene mutation by multiple copy suppression assay; type: functional
[51] = system: Escherichia coli; assay: Antibacterial activity against Escherichia coli 5-NOT mutant 15-1 harboring pykA gene mutation by multiple copy suppression assay; type: functional
[52] = system: Escherichia coli; assay: Adjuvant activity assessed as potentiation of chloramphenicol-induced antibacterial activity against Escherichia coli BW25113 at 0.5 times MIC after 16 to 18 hrs by checkerboard assay (reference value: 8 ng/ml); type: functional
[53] = system: Escherichia coli; assay: Adjuvant activity assessed as potentiation of chloramphenicol-induced antibacterial activity against Escherichia coli BW25113 at 0.25 times MIC after 16 to 18 hrs by checkerboard assay (reference value: 8 ng/ml); type: functional
[54] = system: Escherichia coli; assay: Adjuvant activity assessed as potentiation of tetracycline-induced antibacterial activity against Escherichia coli BW25113 at 0.5 times MIC after 16 to 18 hrs by checkerboard assay (reference value: 2 ng/ml); type: functional
[55] = system: Escherichia coli; assay: Adjuvant activity assessed as potentiation of tetracycline-induced antibacterial activity against Escherichia coli BW25113 at 0.25 times MIC after 16 to 18 hrs by checkerboard assay (reference value: 2 ng/ml); type: functional
[56] = system: Escherichia coli; assay: Adjuvant activity assessed as potentiation of ciprofloxacin-induced antibacterial activity against Escherichia coli BW25113 at 0.5 times MIC after 16 to 18 hrs by checkerboard assay (reference value: 13 ng/ml); type: functional
[57] = system: Escherichia coli; assay: Adjuvant activity assessed as potentiation of ciprofloxacin-induced antibacterial activity against Escherichia coli BW25113 at 0.25 times MIC after 16 to 18 hrs by checkerboard assay (reference value: 13 ng/ml); type: functional
[58] = system: Escherichia coli; assay: Adjuvant activity assessed as potentiation of rifampicin-induced antibacterial activity against Escherichia coli BW25113 at 0.5 times MIC after 16 to 18 hrs by checkerboard assay (reference value: 8 ng/ml); type: functional
[59] = system: Escherichia coli; assay: Adjuvant activity assessed as potentiation of rifampicin-induced antibacterial activity against Escherichia coli BW25113 at 0.25 times MIC after 16 to 18 hrs by checkerboard assay (reference value: 8 ng/ml); type: functional
[60] = species on record: Homo sapiens; assay: Selectivity ratio of Ki for 5-HT1A receptor (unknown origin) to Ki for human 5-HT1D receptor

## CCCCCCCCCOc1ccc2[nH]cc(CCN)c2c1.Cl
[1]
  MIC: 6 µg/mL
[2]
  MIC: 1.5 µg/mL
[3]
  MIC: 0.76 µg/mL
[4]
  MIC: 24 to 96 µg/mL
[5]
  MIC: 6 to 24 µg/mL
[6]
  MIC: 6 to 24 µg/mL
[7]
  MIC: 6 µg/mL
[8]
  MIC: 6 µg/mL
[9]
  MIC: 6 to 24 µg/mL
[10]
  MIC: 6 µg/mL
[11]
  MIC: 6 to 12 µg/mL
[12]
  MIC: 12 to 24 µg/mL
[13]
  MIC: 6 µg/mL
[14]
  MIC: 24 µg/mL
[15]
  MBC: 12 µg/mL
[16]
  MBC: 6 µg/mL
[17]
  MBC: 0.76 µg/mL
[18]
  MBC: 96 µg/mL
[19]
  MBC: 24 µg/mL
[20]
  MBC: 24 µg/mL
[21]
  MBC: 6 µg/mL
[22]
  MBC: 6 µg/mL
[23]
  MBC: > 24 µg/mL
[24]
  MBC: 6 µg/mL
[25]
  MBC: 12 µg/mL
[26]
  MBC: 24 µg/mL
[27]
  MBC: 6 µg/mL
[28]
  MBC: 24 µg/mL
[29]
  Ratio: 2
[30]
  Ratio: 4
[31]
  Ratio: 1
[32]
  Ratio: 4
[33]
  Ratio: 4
[34]
  Ratio: 4
[35]
  Ratio: 1
[36]
  Ratio: 1
[37]
  Ratio: >4
[38]
  Ratio: 1
[39]
  Ratio: 2
[40]
  Ratio: 2
[41]
  Ratio: 2
[42]
  Ratio: 1
[43]
  Activity: Active
[44]
  Activity: 100%
[45]
  MIC: 80 µM
[46]
  MIC: 80 µM
[47]
  MIC: 80 µM
[48]
  MIC: 80 µM
[49]
  MIC: 80 µM
[50]
  MIC: 80 µM
[51]
  MIC: 80 µM
[52]
  MIC: 0.008 µg/mL
[53]
  MIC: 0.008 µg/mL
[54]
  MIC: 0.002 µg/mL
[55]
  MIC: 0.002 µg/mL
[56]
  MIC: 0.013 µg/mL
[57]
  MIC: 0.013 µg/mL
[58]
  MIC: 0.008 µg/mL
[59]
  MIC: 0.008 µg/mL
[60]
  Ratio Ki: 300

## CCCCCCCCCOc1ccc2[nH]ccc2c1
[1]
  MIC: > 83 µg/mL
[2]
  MIC: > 83 µg/mL
[3]
  MIC: > 83 µg/mL
[4]
  MIC: > 83 µg/mL
[5]
  MIC: > 83 µg/mL
[6]
  MIC: > 83 µg/mL
[7]
  MIC: > 83 µg/mL
[8]
  MIC: > 83 µg/mL
[9]
  MIC: > 83 µg/mL
[10]
  MIC: > 83 µg/mL
[11]
  MIC: > 83 µg/mL
[12]
  MIC: > 83 µg/mL
[13]
  MIC: > 83 µg/mL

## CCCCCCCCCCCCCCOc1ccc2[nH]cc(CCN)c2c1.Cl
[1]
  MIC: > 119 µg/mL
[2]
  MIC: > 119 µg/mL
[3]
  MIC: 15 µg/mL
[4]
  MIC: > 119 µg/mL
[5]
  MIC: > 119 µg/mL
[6]
  MIC: > 119 µg/mL
[7]
  MIC: > 119 µg/mL
[8]
  MIC: > 119 µg/mL
[9]
  MIC: > 119 µg/mL
[10]
  MIC: > 119 µg/mL
[11]
  MIC: > 119 µg/mL
[12]
  MIC: > 119 µg/mL
[13]
  MIC: 3.4 to 30 µg/mL
[44]
  Activity: 11%

## COc1ccc2[nH]cc(CCN)c2c1 [5-METHOXYTRYPTAMINE]
[1]
  MIC: > 60.8 µg/mL
[2]
  MIC: > 60.8 µg/mL
[3]
  MIC: > 60.8 µg/mL
[10]
  MIC: > 60.8 µg/mL
[13]
  MIC: > 60.8 µg/mL
